Reference: paper PMC8241002, “A tumor-targeting cRGD-EGFR siRNA conjugate and its anti-tumor effect on glioblastoma in vitro and in vivo” (Drug Delivery, 2017)
Oligonucleotides are written 5' to 3', each unit as a sugar letter and its base; * is a phosphorothioate linkage, no mark a phosphodiester; rarer units and linkages stand in square brackets, end groups in braces. Plain capitals give the bases only. d = 2'-deoxy (DNA); m = 2'-O-methyl; r = 2'-OH (RNA)

Assays:
[1] = Serum stability in mouse serum (agarose gel electrophoresis); format: in vitro ADME; conditions: 37 °C
Description: Five microliters of 20 μM cRGD-siEGFR or EGFR siRNA was mixed with 5 μL of mouse serum and incubated at 37 °C for 0, 12, 24, 36 and 48 h. Aliquots were taken at each of the time points and subjected to electrophoresis in 1.2% non-denaturing agarose gels.
(§1) Figure S1. The characterization of cRGD-siEGFR conjugates and silencing efficiency of EGFR siRNA sequences. (A) The identification of cRGD-siEGFR by HPLC-MS. The measured mass of the sense strand conjugated with cRGD is 7923.4 Da (predicted mass is 7921.4 Da). (B) The analysis of purified cRGD-siEGFR with RP-HPLC. The purity of cRGD-siEGFR, calculated by the peak area normalization method, was 88.0%. (C) The serum stability of cRGD-siEGFR and EGFR siRNA sequences. Molecules were incubated in mouse serum at 37°C for the indicated time periods and then analyzed using agarose (1.2%) gel electrophoresis. (D) Gene silencing efficiency. U87MG cells were treated for 48 h with EGFR-targeting siRNAs, complexed with Lipofectamine 2000. The expression level of EGFR mRNA was analyzed by qRT-PCR. * P<0.05 vs. control group, # P<0.05 vs. siNC group, n=3

EGFR mRNA = assay: Gene silencing efficiency of EGFR siRNA sequences complexed with Lipofectamine 2000 (qRT-PCR); format: cell-based, human; conditions: U87MG cells, 48 h, complexed with Lipofectamine 2000, EGFR mRNA by qRT-PCR, n=3
Description: The relative expression level of EGFR mRNA was tested by qRT-PCR.
The qRT-PCR and western blot analysis were conducted as previously described (Liu et al., [2014]).
as §1

Substance | stability (three 2′-O-Me modifications on both ends of both strands) ([1]; mouse serum, agarose gel electrophoresis) | silencing efficiency (EGFR mRNA) | degradation in mouse serum after 24 h ([1]; 5 μL of 20 μM mixed with 5 μL mouse serum, 24 h, 1.2% non-denaturing agarose gel electrophoresis)
EGFR siRNA-C: Sense 5’mCmAmAAGUGUGUAACGGAmAmUmAdTdT-3’; antisense 5’mUmAmUUCCGUUACACACUmUmUmGdTdT-3’ (sense CAAAGUGUGUAACGGAAUATT; antisense UAUUCCGUUACACACUUUGTT; sugars from the 5' end m3 r13 m3 d2, backbone not given here; further chemistry not fully specified) | obviously improved | over 80% | –
unmodified RNA oligonucleotides: Sense 5’CAAAGUGUGUAACGGAAUAdTdT-3’; antisense 5’UAUUCCGUUACACACUUUGdTdT-3’ (sense rCrArArArGrUrGrUrGrUrArArCrGrGrArArUrAdTdT; antisense rUrArUrUrCrCrGrUrUrArCrArCrArCrUrUrUrGdTdT) | – | – | mostly degraded
